Columns and labels:
Format in all cases: in vivo
[1] = system: Zebrafish tremblor mutant; test: Zebrafish screening: soaking; conditions: for Soaking: % Rescued: Table 1, tremblor mutants, 20 μM; for Rescue percent: Table 2, tremblor mutant soaked in 20 μM test compounds
Method: (§1) We screened our above mention library by using tremblor mutants Zebrafish embryos. […] Compounds were screened for their ability to suppress cardiac fibrillation and/or restore rhythmic synchronized contraction. Briefly, we treated the embryo by soaking in 20 μM solution or injecting compounds after 24 hours fertilization and observed the phenotype after 48 hours. Further, we determined the structure-activity relationship (SAR) between the active compound's structures and the ability to suppress cardiac fibrillation and/or restore rhythmic synchronized contraction.
Zebrafish tremblor mutant eggs were collected after fertilization, and arrayed in 24-well plates (20 twenty embryos/well) in 500 μL buffer. After 24 hour fertilization in 29° C., 20 μM testing compound was added and using E3 buffer as background control. After 48 hour fertilization in 29° C., phenotypic changes were observed using a high magnification dissecting microscope.

[2] = system: Zebrafish tremblor mutant; test: Zebrafish screening: injection into tremblor mutants; conditions: for Injection into tremblor Mutants: % Rescued: Table 1; for Average rescue ratio: Table 4, over all screens
Method: as §1
Zebrafish tremblor mutant eggs were collected at 1 cell stages. 1 nL of compound in Daneu's buffer were injected into the embryo. After 24 hours the embryo was arrayed in 24-well plates (20 twenty embryos/well) in 500 μL buffer. After 48 hour fertilization in 29° C., phenotypic changes were observed using a high magnification dissecting microscope.

[3] = system: Zebrafish embryo injected with morpholino to NCX1h; test: Zebrafish screening: injection with morpholino to NCX1h; conditions: for Injection with Morpholino: % Rescued: Table 1; for Rescue percent: Table 3, morpholino mutants
Method: as §1
Zebrafish eggs were collected at 1 cell stages. 1 nL of compound in Daneu's buffer and 1 nL of morpholino (1 mM) to NCX1h was injected into the embryo. After 24 hours the embryo was arrayed in 24-well plates (20 twenty embryos/well) in 500 μL buffer. After 48 hour fertilization in 29° C., phenotypic changes were observed using a high magnification dissecting microscope.

[4] = Table 4, injection into tremblor mutants

| SMILES | Soaking: % Rescued [1] | Rescue percent [1] | Injection into tremblor Mutants: % Rescued [2] | Screen 1 Rescue percent [2, 4] | Screen 2 Rescue percent [2, 4] | Average rescue ratio [2] | Injection with Morpholino: % Rescued [3] | Rescue percent [3] | Screen 3 Rescue percent [2, 4] |
| --- | --- | --- | --- | --- | --- | --- | --- | --- | --- |
| CCOC(=O)C1=CCN(S(=O)(=O)c2ccc(C)cc2)C1c1ccc(C(=O)OCC)cc1 (racemic) [F7-I-A06] | 17/88% | 88% |  |  |  |  |  |  |  |
| CCOC(=O)C1=CCN(S(=O)(=O)c2ccc(C)cc2)C1c1cccc(C)c1 (racemic) [F7-I-B12] | 19/78% | 78% |  |  |  |  |  |  |  |
| CCOC(=O)C1=CCN(S(=O)(=O)c2ccccc2C)C1c1ccc(F)cc1 (racemic) [F7-I-G04] |  |  | 26/85% | 78% | 88% | 85% | 8/75% | 75% |  |
| CCOC(=O)C1=CCN(S(=O)(=O)c2ccc(Cl)cc2)C1c1ccc(Br)cc1 (racemic) [F7-I-H05] |  |  | 43/74% | 86% | 69% | 74% | 8/88% | 88% | 75% |
| CCOC(=O)C1=CCN(S(=O)(=O)c2ccc(F)cc2)C1c1ccc(F)cc1 (racemic) [F7-II-A01] |  |  | 27/74% | 74% |  | 74% | 8/38% | 38% |  |
| CCOC(=O)C1=CCN(S(=O)(=O)c2ccc(Cl)cc2)C1c1ccccc1 (racemic) [F7-II-A11] |  |  | 30/73% | 73% |  | 73% | 6/0% | 0% |  |
| CCOC(=O)C1=CCN(S(=O)(=O)c2ccc(F)cc2)C1c1ccccc1 (racemic) [F7-II-B01] |  |  | 21/81% | 91% | 79% | 81% | 6/67% | 67% |  |
| CCOC(=O)C1=CCN(S(=O)(=O)c2ccc(C)cc2)C1c1ccccc1 (racemic) [F7] |  | 72% |  |  |  |  |  |  |  |
| CCOC(=O)C1=CCN(S(=O)(=O)c2ccccc2F)C1c1ccc(Br)cc1 (racemic) [Formula Im] |  |  |  |  |  |  | 8/88% |  |  |
| Cc1ccc(S(=O)(=O)N2CC=C(C(=O)O)C2c2ccccc2)cc1 (centres unmarked) [F7 acid] |  | 21% |  |  |  |  |  |  |  |
| CCOC(=O)C1=CCN(S(=O)(=O)c2ccc(C)cc2)C1c1ccc(F)cc1 (centres unmarked) [F7-I-B04] | 8/75% | 75% |  |  |  |  |  |  |  |
| CCOC(=O)C1=CCN(S(=O)(=O)c2ccc(Cl)cc2)C1c1ccc(Cl)cc1 (centres unmarked) [F7-I-B07] | 18/80% | 80% |  |  |  |  |  |  |  |
| CCOC(=O)C1=CCN(S(=O)(=O)c2ccc(F)cc2)C1c1ccc(Cl)c(Cl)c1 (centres unmarked) [F7-I-F05] |  |  | 10/80% | 80% |  | 80% | 14/50% | 50% |  |
| CCOC(=O)C1=CCN(S(=O)(=O)c2ccc(F)cc2)C1c1cccc(C)c1 (centres unmarked) [F7-I-F09] |  |  | 15/87% | 87% |  | 87% | 8/75% | 75% |  |
| CCOC(=O)C1=CCN(S(=O)(=O)c2cccc(Cl)c2)C1c1cccc(Cl)c1 (centres unmarked) [F7-I-F11] |  |  | 28/79% | 80% | 78% | 79% | 8/88% | 88% |  |
| CCOC(=O)C1=CCN(S(=O)(=O)c2ccccc2Br)C1c1ccc(Cl)cc1 (centres unmarked) [F7-I-G09] |  |  | 23/87% | 78% |  | 78% | 6/67% | 67% |  |
| CCOC(=O)C1=CCN(S(=O)(=O)c2ccccc2F)C1c1ccc(Cl)cc1 (centres unmarked) [F7-I-H01] |  |  | 12/83% | 83% |  | 83% | 8/63% | 63% |  |
| CCOC(=O)C1=CCN(S(=O)(=O)c2cccc(F)c2)C1c1ccc(F)cc1 (centres unmarked) [F7-II-B12] |  |  | 21/76% | 76% |  | 76% |  |  |  |
| CCOC(=O)C1=CCN(S(=O)(=O)c2ccccc2F)C1c1ccc(F)cc1 (centres unmarked) [Formula In] |  |  |  |  |  |  | 8/88% |  |  |
| CCOC(=O)C1=CCN(S(=O)(=O)c2ccccc2F)C1c1ccc(C)cc1 (centres unmarked) [Formula Io] |  |  |  |  |  |  | 8/75% |  |  |
